In patent EP3868759A1, “2,3,5-SUBSTITUTED PYRROLO[2,3-B]PYRIDINES AS ERBB MODULATORS USEFUL FOR TREATING CANCER” (PearlRiver Bio GmbH, priority 2020, dated 2021):

How the values were obtained:
EGFR L858R T790M Ba/F3 = test: CellTiter-Glo cell viability, EGFR L858R T790M Ba/F3; assay type: cell-based; settings: Mus musculus, BaF3, 72 h, read-out: EGFR L858R T790M Ba/F3 CTG IC50 /
Description: (§1) The CellTiter-Glo Luminescent Cell Viability Assay (Promega) is a homogeneous method of determining the number of viable cells in culture. It is based on quantification of ATP, indicating the presence of metabolically active cells. Cells are seeded on day 1 at cell numbers that assure assay linearity and optimal signal intensity. After incubation for 24h in humidified chambers at 37°C and 5% CO2, compounds in DMSO are added at different concentrations. Cells are further incubated for 72 h at 37°C and 5% CO2. Cells treated with the compound vehicle DMSO are used as positive controls and cells treated with 10 µM Staurosporine serve as negative controls. At day 5 the CellTiter Glo Reagent is prepared according to the instructions of the kit (Promega Inc.): Reagent is mixed 1:1 with cell culture medium. Thereon, mixture and assay plates are equilibrated at room temperature for 20 min. Equal volumes of the reagent-medium-mixture is added to the volume of culture medium present in each well. The plates are mixed at ∼200 rpm for 2 minutes on an orbital shaker. The microplates are then incubated at room temperature for 10 minutes for stabilization of the luminescent signal. Following incubation the luminescence is recorded on a Victor microplate reader (Perkin Elmer) using a 200 ms integration time. The data is then analyzed with Excel using the XLFIT Plugin (dose response Fit 205) for IC50-determination. As quality control the Z'-factor is calculated from 16 positive and negative control values. Only assay results showing a Z'-factor ≥ 0.5 are used for further analysis.

A431 = test: CellTiter-Glo cell viability, A431; assay type: cell-based; settings: Homo sapiens, A-431, 72 h, read-out: A431 CTG IC50
Description: as §1

[1] = system: Her2 Exon 20 InsYVMA Ba/F3; test: CellTiter-Glo cell viability, Her2 Exon 20 InsYVMA Ba/F3; assay type: cell-based; settings: Mus musculus, BaF3, 72 h, read-out: Her2 Exon 20 InsYVMA Ba/F3 CTG IC50
Description: as §1

EGFR L858R Ba/F3 = test: CellTiter-Glo cell viability, EGFR L858R Ba/F3; assay type: cell-based; settings: Mus musculus, BaF3, 72 h, read-out: EGFR L858R Ba/F3 CTG IC50 /
Description: as §1

[2] = system: EGFR Exon 20 InsNPH Ba/F3; test: CellTiter-Glo cell viability, EGFR Exon 20 InsNPH Ba/F3; assay type: cell-based; settings: Mus musculus, BaF3, 72 h, read-out: EGFR Exon 20 InsNPH Ba/F3 CTG IC50
Description: as §1

EGFR (del746-750) = EGFR (del746-750) (Homo sapiens, UniProt P00533, DEL746-750); test: Lance assay, EGFR (del746-750); settings: biochemical Lance assay
EGFR T790M L858R = EGFR T790M L858R (Homo sapiens, UniProt P00533, L858R/T790M); test: Lance assay, EGFR T790M L858R; settings: biochemical Lance assay
EGFR vIII Ba/F3 = test: CellTiter-Glo cell viability, EGFR vIII Ba/F3; assay type: cell-based; settings: Mus musculus, BaF3, 72 h, read-out: EGFR vIII Ba/F3 CTG IC50 /
Description: as §1

EGFR L858R = EGFR L858R (Homo sapiens, UniProt P00533, L858R); test: Lance assay, EGFR L858R; settings: biochemical Lance assay
HER2 INS YVMA = molecular target: T1, HER2 INS YVMA (Homo sapiens, UniProt P04626, INS775YVMA); test: Lance Kinase Activity Assay, Her2 Exon 20 InsYVMA; settings: biochemical Lance assay
T1 construct: purchased DPF
Description: This protocol describes how the Lance Kinase Activity Assay was performed to determine IC50 values of compounds of general formula (I) against HER2 INS YVMA. The principle behind this enzymatic assay is based upon the phosphorylation of the Ulight-peptide substrate. It is detected by using a specific EU-labeled anti-phospho peptide antibody. The binding of the Eu labeled anti-phospho peptide antibody to the phosphorylated ULight labeled peptide gives rise to a FRET-signal. Binding of an inhibitor to the kinase prevents phosphorylation of the Ulight-substrate, resulting in a loss of FRET. In table 2 is summarized the relevant information for the LANCE assay. Table 2: Reagents, stock concentrations and final assay concentrations for Her2 INS YVMA.
The compounds of general formula (I) summarized in Table 3 were serial diluted from a 10 mM DMSO stock solution 1:3 over 8 steps in a total volume of 20 µl. For every sample, 8 µl of kinase-substrate mix was transferred into a suitable assay plate (e.g. Corning #3673). Compound was added via pintool transfer (10nl/well) using a Biomek FX robot (BeckmanCoulter). Reaction was started by addition of 2µl ATP working solution and mixed using variomag teleshaker (Thermo Fischer Scientific). After 1 h incubation at room temperature the reaction was stopped with 10µl detection mix containing the Eu-labeled phosphospecific antibody and 10mM EDTA. After a second incubation period of 1 h at room temperature the FRET signal was measured at 340 nm excitation, 665 nm and 615 nm emission (for the ULight-substrate and Eu-AB, respectively) with an Envision spectrophotometer (Perkin Elmer, Waltham, MA, USA) with 50 µs delay and 300 µs integration time. IC50 values were determined from the sigmoidal dose response curves with the software Quattro Workflow (Quattro GmbH, Munich, Germany).

EGFR wt = EGFR wt (Homo sapiens, UniProt P00533); test: Lance assay, EGFR wt; settings: biochemical Lance assay
H1975 = test: CellTiter-Glo cell viability, H1975; assay type: cell-based; settings: Homo sapiens, NCI-H1975, 72 h, read-out: H1975 CTG IC50
Description: as §1

Cuto-17 = test: CellTiter-Glo cell viability, Cuto-17; assay type: cell-based; settings: CUTO17, 72 h, read-out: Cuto-17 CTG IC50
Description: as §1

T1 sequence (P04626 with tags, fused parts or gaps INS775YVMA): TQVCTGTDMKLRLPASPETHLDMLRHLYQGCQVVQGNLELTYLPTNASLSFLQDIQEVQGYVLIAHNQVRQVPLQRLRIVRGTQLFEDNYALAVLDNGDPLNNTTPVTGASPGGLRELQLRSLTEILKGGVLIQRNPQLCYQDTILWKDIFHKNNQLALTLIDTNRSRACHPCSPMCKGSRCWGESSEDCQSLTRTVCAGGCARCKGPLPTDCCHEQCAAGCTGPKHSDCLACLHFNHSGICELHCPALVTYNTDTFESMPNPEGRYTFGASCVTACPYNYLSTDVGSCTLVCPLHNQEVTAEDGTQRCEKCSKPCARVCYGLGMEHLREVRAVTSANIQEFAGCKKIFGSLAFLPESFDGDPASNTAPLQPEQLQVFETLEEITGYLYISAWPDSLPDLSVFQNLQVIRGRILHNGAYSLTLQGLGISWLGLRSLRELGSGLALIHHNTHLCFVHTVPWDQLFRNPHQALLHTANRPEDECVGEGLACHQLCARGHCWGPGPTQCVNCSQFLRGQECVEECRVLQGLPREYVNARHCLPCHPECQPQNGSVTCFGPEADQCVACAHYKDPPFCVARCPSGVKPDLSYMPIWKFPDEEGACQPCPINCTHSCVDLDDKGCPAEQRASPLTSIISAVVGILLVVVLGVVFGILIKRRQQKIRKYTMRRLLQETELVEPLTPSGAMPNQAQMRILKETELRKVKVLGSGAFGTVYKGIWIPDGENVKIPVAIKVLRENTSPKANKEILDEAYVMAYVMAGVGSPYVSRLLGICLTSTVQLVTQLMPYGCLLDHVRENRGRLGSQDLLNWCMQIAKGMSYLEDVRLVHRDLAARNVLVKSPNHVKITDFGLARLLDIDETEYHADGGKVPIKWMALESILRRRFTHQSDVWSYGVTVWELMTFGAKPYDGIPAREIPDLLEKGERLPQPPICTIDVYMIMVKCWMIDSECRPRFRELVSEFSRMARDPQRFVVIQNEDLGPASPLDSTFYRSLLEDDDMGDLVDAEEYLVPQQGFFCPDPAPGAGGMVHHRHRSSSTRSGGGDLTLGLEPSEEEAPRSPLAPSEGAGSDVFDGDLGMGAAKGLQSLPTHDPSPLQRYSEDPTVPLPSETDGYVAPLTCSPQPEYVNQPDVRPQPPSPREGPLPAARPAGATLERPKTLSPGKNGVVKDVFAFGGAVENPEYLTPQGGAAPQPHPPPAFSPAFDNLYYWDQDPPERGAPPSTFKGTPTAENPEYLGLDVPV
EGFR wt, sequence (P00533 25-1210): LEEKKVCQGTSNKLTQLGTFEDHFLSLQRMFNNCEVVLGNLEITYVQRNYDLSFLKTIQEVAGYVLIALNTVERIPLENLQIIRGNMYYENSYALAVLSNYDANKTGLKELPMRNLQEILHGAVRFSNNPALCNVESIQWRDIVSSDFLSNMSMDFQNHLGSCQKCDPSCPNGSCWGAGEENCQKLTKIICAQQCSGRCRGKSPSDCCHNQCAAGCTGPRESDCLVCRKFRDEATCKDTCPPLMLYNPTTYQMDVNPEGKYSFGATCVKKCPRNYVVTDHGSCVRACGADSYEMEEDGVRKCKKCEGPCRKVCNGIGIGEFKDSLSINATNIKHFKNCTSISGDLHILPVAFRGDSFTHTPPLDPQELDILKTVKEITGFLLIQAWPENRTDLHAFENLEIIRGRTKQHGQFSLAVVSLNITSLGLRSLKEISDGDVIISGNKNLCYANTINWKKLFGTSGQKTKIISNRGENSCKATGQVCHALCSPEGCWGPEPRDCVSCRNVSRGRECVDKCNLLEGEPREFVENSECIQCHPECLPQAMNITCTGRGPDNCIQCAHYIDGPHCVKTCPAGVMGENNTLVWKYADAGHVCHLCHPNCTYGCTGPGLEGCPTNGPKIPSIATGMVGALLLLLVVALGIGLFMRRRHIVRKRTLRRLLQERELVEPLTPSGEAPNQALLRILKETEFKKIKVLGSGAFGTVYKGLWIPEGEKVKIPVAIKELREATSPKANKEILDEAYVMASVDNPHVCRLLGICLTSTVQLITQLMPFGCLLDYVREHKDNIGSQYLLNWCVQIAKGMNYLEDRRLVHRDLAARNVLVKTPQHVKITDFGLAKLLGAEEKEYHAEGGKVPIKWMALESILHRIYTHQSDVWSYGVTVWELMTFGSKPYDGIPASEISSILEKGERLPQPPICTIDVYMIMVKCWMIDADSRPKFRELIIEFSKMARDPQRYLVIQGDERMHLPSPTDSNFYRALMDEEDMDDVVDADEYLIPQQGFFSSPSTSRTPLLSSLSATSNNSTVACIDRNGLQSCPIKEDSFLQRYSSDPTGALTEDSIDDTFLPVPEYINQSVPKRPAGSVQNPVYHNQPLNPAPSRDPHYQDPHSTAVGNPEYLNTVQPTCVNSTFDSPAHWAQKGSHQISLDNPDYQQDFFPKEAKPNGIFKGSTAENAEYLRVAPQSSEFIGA
EGFR L858R, sequence (P00533 25-1210 L858R): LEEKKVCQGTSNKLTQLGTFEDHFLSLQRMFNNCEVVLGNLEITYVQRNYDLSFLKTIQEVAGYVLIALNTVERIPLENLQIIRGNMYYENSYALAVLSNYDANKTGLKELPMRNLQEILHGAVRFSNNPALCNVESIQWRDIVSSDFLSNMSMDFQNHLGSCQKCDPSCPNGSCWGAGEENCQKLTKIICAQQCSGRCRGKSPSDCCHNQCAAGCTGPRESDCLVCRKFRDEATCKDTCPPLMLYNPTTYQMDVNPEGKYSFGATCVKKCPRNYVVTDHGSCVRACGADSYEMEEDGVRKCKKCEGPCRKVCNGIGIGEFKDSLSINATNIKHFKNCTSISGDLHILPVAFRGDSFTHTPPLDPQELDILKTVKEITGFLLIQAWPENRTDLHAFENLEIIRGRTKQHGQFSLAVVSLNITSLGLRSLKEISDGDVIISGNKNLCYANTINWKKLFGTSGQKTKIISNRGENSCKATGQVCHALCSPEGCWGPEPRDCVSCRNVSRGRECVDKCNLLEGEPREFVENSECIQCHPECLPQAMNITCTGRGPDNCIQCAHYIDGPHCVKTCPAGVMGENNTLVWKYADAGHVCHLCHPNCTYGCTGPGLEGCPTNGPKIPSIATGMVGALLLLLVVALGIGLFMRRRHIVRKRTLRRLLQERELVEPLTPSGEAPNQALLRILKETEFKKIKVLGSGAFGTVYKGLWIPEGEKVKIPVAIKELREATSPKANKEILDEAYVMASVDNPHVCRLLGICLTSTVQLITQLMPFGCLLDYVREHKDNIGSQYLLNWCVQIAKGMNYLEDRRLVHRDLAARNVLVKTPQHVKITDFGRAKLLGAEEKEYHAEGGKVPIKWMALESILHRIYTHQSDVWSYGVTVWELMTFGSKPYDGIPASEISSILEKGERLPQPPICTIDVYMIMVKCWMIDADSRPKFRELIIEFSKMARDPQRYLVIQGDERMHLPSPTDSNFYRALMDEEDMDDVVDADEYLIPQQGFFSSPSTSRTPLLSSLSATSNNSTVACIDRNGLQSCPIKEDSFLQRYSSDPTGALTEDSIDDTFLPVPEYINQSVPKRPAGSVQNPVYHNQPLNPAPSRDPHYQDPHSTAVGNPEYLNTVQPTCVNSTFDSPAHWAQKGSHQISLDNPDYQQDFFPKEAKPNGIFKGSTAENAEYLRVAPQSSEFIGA
EGFR (del746-750), sequence (P00533 with tags, fused parts or gaps DEL746-750): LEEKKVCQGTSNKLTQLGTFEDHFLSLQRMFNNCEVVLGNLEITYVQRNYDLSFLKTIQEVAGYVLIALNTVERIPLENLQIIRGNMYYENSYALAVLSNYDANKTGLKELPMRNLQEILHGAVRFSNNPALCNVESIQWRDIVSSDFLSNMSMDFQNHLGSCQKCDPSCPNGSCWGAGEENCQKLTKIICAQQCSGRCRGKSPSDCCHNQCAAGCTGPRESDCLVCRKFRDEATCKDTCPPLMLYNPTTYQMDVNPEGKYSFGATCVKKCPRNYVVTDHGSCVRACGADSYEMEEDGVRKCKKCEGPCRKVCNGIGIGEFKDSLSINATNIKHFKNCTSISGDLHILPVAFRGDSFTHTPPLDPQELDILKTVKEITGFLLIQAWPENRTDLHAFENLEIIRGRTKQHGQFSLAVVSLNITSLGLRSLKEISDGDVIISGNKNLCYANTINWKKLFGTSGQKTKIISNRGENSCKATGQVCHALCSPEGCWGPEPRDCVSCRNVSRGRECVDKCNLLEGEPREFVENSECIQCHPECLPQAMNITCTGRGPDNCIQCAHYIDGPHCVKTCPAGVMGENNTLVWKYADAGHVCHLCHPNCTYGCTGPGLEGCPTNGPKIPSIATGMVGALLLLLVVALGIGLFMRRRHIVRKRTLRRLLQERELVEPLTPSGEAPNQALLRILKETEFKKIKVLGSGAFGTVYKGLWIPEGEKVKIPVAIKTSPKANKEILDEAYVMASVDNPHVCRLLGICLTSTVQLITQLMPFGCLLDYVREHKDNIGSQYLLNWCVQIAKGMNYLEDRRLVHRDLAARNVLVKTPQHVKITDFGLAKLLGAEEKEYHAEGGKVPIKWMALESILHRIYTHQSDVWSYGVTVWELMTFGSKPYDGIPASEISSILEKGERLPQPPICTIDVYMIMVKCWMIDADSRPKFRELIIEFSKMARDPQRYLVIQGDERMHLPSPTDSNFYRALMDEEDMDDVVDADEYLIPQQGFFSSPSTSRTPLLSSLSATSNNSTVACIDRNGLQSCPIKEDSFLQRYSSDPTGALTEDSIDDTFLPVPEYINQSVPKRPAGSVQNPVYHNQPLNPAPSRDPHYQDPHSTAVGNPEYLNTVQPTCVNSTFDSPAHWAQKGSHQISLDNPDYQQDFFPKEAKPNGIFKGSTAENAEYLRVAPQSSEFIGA

SMILES	IC50 (EGFR L858R T790M Ba/F3)	IC50 (A431)	IC50 [1]	IC50 (EGFR L858R Ba/F3)	IC50 [2]	IC50 (EGFR (del746-750))	IC50 (EGFR T790M L858R)	IC50 (EGFR vIII Ba/F3)	IC50 (EGFR L858R)	IC50 (HER2 INS YVMA)	IC50 (EGFR wt)	IC50 (H1975)	IC50 (Cuto-17)
C=CC(=O)Nc1cc(-c2c(-c3cn(C)cn3)[nH]c3ncc(C(=O)OC(C)C)c(C)c23)ccc1C [Example 25, isopropyl 3-(3-acrylamido-4-methylphenyl)-4-methyl-2-(1-methyl-1 H-imidazol-4-yl)-1H-pyrrolo[2,3-b]pyridine-5-carboxylate]	50 to 100 nM	1000 to 10000 nM	100 to 500 nM	≤ 50 nM	100 to 500 nM	≤ 50 nM	50 to 100 nM	50 to 100 nM	≤ 50 nM	100 to 500 nM	≤ 50 nM		
C=CC(=O)Nc1cc(-c2c(-c3cnn(C)c3)[nH]c3ncc(-c4cnn(C5COC5)c4)cc23)ccc1C [Example 35, N-(2-methyl-5-(2-(1-methyl-1H-pyrazol-4-yl)-5-(1-(oxetan-3-yl)-1 H-pyrazol-4-yl)-1H-pyrrolo[2,3-b]pyridin-3-yl)phenyl)acrylamide]	100 to 500 nM	1000 to 10000 nM	1000 to 10000 nM	≤ 50 nM	500 to 1000 nM	≤ 50 nM	≤ 50 nM	100 to 500 nM	≤ 50 nM	100 to 500 nM	≤ 50 nM		
C=CC(=O)Nc1cc(-c2c(-c3cnn(C)c3)[nH]c3ncc(-c4cnn(C)c4)cc23)ccc1C [Example 26, N-(5-(2,5-bis(1-methyl-1H-pyrazol-4-yl)-1H-pyrrolo[2,3-b]pyridin-3-yl)-2-methylphenyl)acrylamide 2,2,2-trifluoroacetate]	100 to 500 nM	1000 to 10000 nM	100 to 500 nM	≤ 50 nM	50 to 100 nM	≤ 50 nM	≤ 50 nM	≤ 50 nM	≤ 50 nM	100 to 500 nM	≤ 50 nM		
C=CC(=O)Nc1cc(-c2c(-c3cnn(CCN4CCOCC4)c3)[nH]c3ncc(C(=O)OC(C)C)c(C)c23)ccc1C [Example 17, isopropyl 3-(3-acrylamido-4-methylphenyl)-4-methyl-2-(1-(2-morpholinoethyl)-1 H-pyrazol-4-yl)-1 H-pyrrolo[2,3-b]pyridine-5-carboxylate]		1000 to 10000 nM	100 to 500 nM		100 to 500 nM		≤ 50 nM	100 to 500 nM		≤ 50 nM	≤ 50 nM	500 to 1000 nM	100 to 500 nM
C=CC(=O)Nc1cc(-c2c(-c3cnn(C4COC4)c3)[nH]c3ncc(C(=O)OC(C)C)c(C)c23)ccc1C [Example 19, isopropyl 3-(3-acrylamido-4-methylphenyl)-4-methyl-2-(1-(oxetan-3-yl)-1 H-pyrazol-4-yl)-1 H-pyrrolo[2,3-b]pyridine-5-carboxylate]		1000 to 10000 nM	100 to 500 nM		≤ 50 nM		≤ 50 nM	100 to 500 nM		≤ 50 nM	≤ 50 nM	100 to 500 nM	100 to 500 nM

Continued, in another order:

IC50 (EGFR L858R T790M Ba/F3)	IC50 (A431)	IC50 [1]	IC50 (EGFR L858R Ba/F3)	IC50 [2]	IC50 (EGFR (del746-750))	IC50 (EGFR T790M L858R)	IC50 (EGFR vIII Ba/F3)	IC50 (EGFR L858R)	IC50 (HER2 INS YVMA)	IC50 (EGFR wt)	IC50 (H1975)	SMILES	IC50 (Cuto-17)
100 to 500 nM	1000 to 10000 nM	100 to 500 nM	≤ 50 nM	50 to 100 nM	≤ 50 nM	100 to 500 nM	≤ 50 nM	≤ 50 nM	100 to 500 nM	≤ 50 nM		C=CC(=O)Nc1cc(-c2c(-c3cnn(C)c3)[nH]c3ncc(-c4cnn(CC(C)C)c4)cc23)ccc1C [Example 32, N-(5-(5-(1-isobutyl-1H-pyrazol-4-yl)-2-(1-methyl-1H-pyrazol-4-yl)-1H-pyrrolo[2,3-b]pyridin-3-yl)-2-methylphenyl)acrylamide]	
100 to 500 nM	1000 to 10000 nM	500 to 1000 nM	≤ 50 nM	100 to 500 nM	≤ 50 nM	≤ 50 nM	≤ 50 nM	≤ 50 nM	50 to 100 nM	≤ 50 nM		C=CC(=O)Nc1cc(-c2c(-c3cnn(C)c3)[nH]c3ncc(-c4cnn(CCOC)c4)cc23)ccc1C [Example 33, N-(5-(5-(1-(2-methoxyethyl)-1 H-pyrazol-4-yl)-2-(1-methyl-1 H-pyrazol-4-yl)-1H-pyrrolo[2,3-b]pyridin-3-yl)-2-methylphenyl)acrylamide]	
100 to 500 nM	1000 to 10000 nM	500 to 1000 nM	≤ 50 nM	100 to 500 nM	≤ 50 nM	50 to 100 nM	50 to 100 nM	≤ 50 nM	100 to 500 nM	≤ 50 nM		C=CC(=O)Nc1cc(-c2c(-c3cnn(CCO)c3)[nH]c3ncc(C(=O)OC(C)C)c(C)c23)ccc1C [Example 23, isopropyl 3-(3-acrylamido-4-methylphenyl)-2-(1-(2-hydroxyethyl)-1H-pyrazol-4-yl)-4-methyl-1 H-pyrrolo[2,3-b]pyridine-5-carboxylate]	
50 to 100 nM	1000 to 10000 nM	100 to 500 nM	≤ 50 nM	≤ 50 nM	≤ 50 nM	≤ 50 nM	≤ 50 nM	≤ 50 nM	50 to 100 nM	≤ 50 nM		C=CC(=O)Nc1cc(-c2c(-c3cnn(C)c3)[nH]c3ncc(-c4cnn(CC)c4)cc23)ccc1C [Example 28, N-(5-(5-(1-ethyl-1H-pyrazol-4-yl)-2-(1-methyl-1 H-pyrazol-4-yl)-1 H-pyrrolo[2,3-b]pyridin-3-yl)-2-methylphenyl)acrylamide]	
100 to 500 nM	1000 to 10000 nM	500 to 1000 nM	≤ 50 nM	100 to 500 nM	≤ 50 nM	≤ 50 nM	≤ 50 nM	≤ 50 nM	100 to 500 nM	≤ 50 nM		C=CC(=O)Nc1cc(-c2c(-c3cnn(C)c3)[nH]c3ncc(-c4ccnn4C)cc23)ccc1C [Example 27, N-(2-methyl-5-(2-(1-methyl-1H-pyrazol-4-yl)-5-(-methyl-1 H-pyrazol-5-yl)-1 H-pyrrolo[2,3-b]pyridin-3-yl)phenyl)acrylamide]	
100 to 500 nM	1000 to 10000 nM	500 to 1000 nM	≤ 50 nM	100 to 500 nM	≤ 50 nM	≤ 50 nM	100 to 500 nM	≤ 50 nM	100 to 500 nM	≤ 50 nM		C=CC(=O)Nc1cc(-c2c(-c3cnn(C)c3)[nH]c3ncc(-c4cn(C)nc4C)cc23)ccc1C [Example 30, N-(5-(5-(1,3-dimethyl-1H-pyrazol-4-yl)-2-(1-methyl-1 H-pyrazol-4-yl)-1 H-pyrrolo[2,3-b]pyridin-3-yl)-2-methylphenyl)acrylamide]	
